Holding throughout (format): binding
For assay [1], the target named is T1, natural TetR (Escherichia coli, UniProt P04483).
T1 construct: made in house
Nature of the assay: Fluorescence polarization assay (FPA) with natural TetR. The method, then: (§1) The FPA method was performed as follows. A total of 50 μL mutant, 50 μL TCs solution, and 50 μL fluorescent tracer were added into the wells of a 96-well microplate (in triplicate) and incubated for 2 min. Then the fluorescence polarization (FP) value of each well was recorded (λex 485 nm, λem 528 nm, emission cutoff of 515 nm). During the experiments, the two fluorescent tracers were compared, and several other parameters were optimized, including tracer concentration, mutant concentration, Mg^2+ concentration and incubation time. The 10 TCs and several other classes of drugs were all tested by this method. The competitive curve was developed by plotting the FP/FP0 values (the fluorescence polarization value at each concentration divided by that of zero concentration) versus the concentrations of the TCs (log C). Based on the developed competitive curve, the half of inhibition (IC50) and the limit of detection (IC10) for each drug were determined, respectively.
(§2) This is the first study reporting an FPA method for the determination of TCs. Under the optimal conditions, the 10 TCs were diluted with the extracts of a blank milk sample to be analyzed, respectively. […] During the experiments, the natural TetR was also used to perform the FPA method as described above.
In general terms: Fluorescence polarisation rises when a labelled molecule tumbles more slowly, as on binding a larger partner.

The target in assay [2] is T2, TetR mutant (Escherichia coli, UniProt P04483, H139W).
T2 construct: made in house; host or cells: E. coli Rosetta-gami(BL21), vector pET28a
The assay can be described thus: Fluorescence polarization assay (FPA) with TetR mutant. The note with it: for LOD (limit of detection, IC10): TetR mutant, FPA, FA-MC tracer, drugs diluted with blank milk extract. As to the method:
as §1
For obtaining the best method performance, several parameters were optimized with DMC as the representative. Firstly, the concentrations of FA-MC and the mutant were optimized. During the experiments, the FA-MC and the mutant at different concentrations were mixed with the same concentration of DMC to perform the assay. […] Secondly, the concentration of Mg^2+ (MgCl2) was optimized. […] Thirdly, the competition time was optimized.
as §2

Assay [3] concerns the target T1, natural TetR. The assay can be described thus: Surface plasmon resonance affinity, natural TetR. The following applies: for Kd: KD (equilibrium dissociation constant, Kd/Ka); for Kd / koff (dissociation rate constant): SPR. The method, then: (§3) After the experiments, the association constant (Ka), the dissociation constant (Kd), and the equilibrium dissociation constant (KD = Kd/Ka) for each drug were calculated. For convenience in comparing their affinities, the absolute affinity constant (KA = […]) for each drug was also calculated.

The target in assay [4] is T2, TetR mutant. Nature of the assay: Surface plasmon resonance affinity, TetR mutant. The note with it: SPR; for Kd: KD (equilibrium dissociation constant, Kd/Ka). The method, then:
as §3
The primers were designed according to the virtual model: mutant for, […]; mutant rev, […]. The amplified gene was inserted into pET28a to construct the express vector that was transformed into E. coli Rosetta-gami(BL21) to express the mutant, and these procedures were according to our recent report. The obtained TetR mutant was characterized by using SDS-PAGE and western blotting according to our recent report, and its recognition ability for the 10 TCs was evaluated by the following FPA method. Furthermore, its recognition mechanisms and affinities for the 10 TCs were also determined as described above.
In general terms: SPR reads the build-up and loss of mass on a sensor chip optically.

Setting [5] is: read-out: Ka (association constant), TetR without Mg2+, SPR.
The mark [6] stands for this setting: read-out: Ka (association constant), TetR+Mg2+, SPR.

The IC50 is the concentration needed to halve the response being measured. Low readings indicate greater potency, high ones weaker potency. As usually defined, the Kd is the constant that tells how readily two partners part at equilibrium. Low values mean a tighter complex, high ones a looser complex.

Where two headings read alike, the source gives them in different places.

With `CN(C)c1ccc(O)c2c1C[C@H]1C[C@H]3[C@H](N(C)C)C(O)=C(C(N)=O)C(=O)[C@@]3(O)C(O)=C1C2=O` [MC, minocycline], the IC50 against natural TetR [1] was 94.9 nM; at TetR mutant [2], 52 nM. The “LOD (limit of detection, IC10)” value at TetR mutant [2] came to 0.5 ng/mL. Also, the dissociation constant Kd on natural TetR [3] (TetR without Mg2+) stood at 112 nM; at natural TetR [3] (TetR+Mg2+), 70.3 nM; on TetR mutant [4] (TetR mutant without Mg2+), 3.1 nM; on TetR mutant [4] (TetR mutant+Mg2+), 0.191 nM. Moreover, the “koff (dissociation rate constant)” value on natural TetR [3] (TetR without Mg2+) worked out at 0.000507 s⁻¹; at natural TetR [3] (TetR+Mg2+) it was 0.000511 s⁻¹. In addition, the results for the kon on natural TetR [3] (setting [5]) and at natural TetR [3] (setting [6]) were 4540 M⁻¹ s⁻¹ and 7270 M⁻¹ s⁻¹, respectively. Besides, the “Dissociation rate constant (koff)” value at TetR mutant [4] (TetR mutant without Mg2+) worked out at 4.23e-05 s⁻¹; at TetR mutant [4] (TetR mutant+Mg2+), 3.19e-05 s⁻¹.

Regarding `CN(C)c1cc(NC(=O)CNC(C)(C)C)c(O)c2c1C[C@H]1C[C@H]3[C@H](N(C)C)C(O)=C(C(N)=O)C(=O)[C@@]3(O)C(O)=C1C2=O` [TIC, tigecycline], the IC50 against natural TetR [1] was 52.6 nM; against TetR mutant [2] it was 27.3 nM. Also, at TetR mutant [2], the “LOD (limit of detection, IC10)” value was found to be 0.4 ng/mL. Further, the Kd came to 10.4 nM on natural TetR [3] (TetR without Mg2+), 28.2 nM at natural TetR [3] (TetR+Mg2+), 0.104 nM on TetR mutant [4] (TetR mutant without Mg2+) and 0.104 nM at TetR mutant [4] (TetR mutant+Mg2+). In addition, the entries for the “koff (dissociation rate constant)” value on natural TetR [3] (TetR without Mg2+) and on natural TetR [3] (TetR+Mg2+) were 1.04e-05 s⁻¹ and 1.78e-05 s⁻¹, respectively. The kon stood at 1010 M⁻¹ s⁻¹ on natural TetR [3] (setting [5]) and 633 M⁻¹ s⁻¹ at natural TetR [3] (setting [6]). Moreover, the “Dissociation rate constant (koff)” value came out at 9.45e-07 s⁻¹ on TetR mutant [4] (TetR mutant without Mg2+) and 1.78e-06 s⁻¹ on TetR mutant [4] (TetR mutant+Mg2+).

For the origin of these results see PMC9735679, “Identification and Evolution of a Natural Tetr Protein Based on Molecular Docking and Development of a Fluorescence Polari-Zation Assay for Multi-Detection of 10 Tetracyclines in Milk” (Foods, 2022).
